Several values for one entry are separate records, joined by “and”; a condition that tells them apart may be missing. Equal entries are not always repeated.
Key:
Assay type in all cases: biochemical
Factor Xa = molecular target: T1, Factor Xa (Homo sapiens, UniProt P00742); experiment: Chromogenic assay, Factor Xa; conditions: Factor Xa 0.5 nM; S-2288 500 μM; highest conc. of 1.001 20 μM
T1 construct: purchased Haematologic Technologies
Experimental: (§1) Assays: All assays were performed in 384 well polystyrene plates coated overnight with 0.1% Tween 20 at 4° C. The plates were then washed twice with 100 μL water and dried. For the determination of IC50 values, the inhibitors were diluted in serial dilutions of 1:3 intervals into pure DMSO at 50 fold of the intended final concentrations in the assays. Usually eight inhibitor dilutions and one DMSO control were prepared. The substrates were diluted into water at 2.2-fold the final concentration in the assay mixture. The wells of the plate were filled with 50 μL of the enzyme diluted in 2× assay buffer (100 mM Tris, 200 mM NaCl, 0.2% PEG, 0.01% Tween, 2 mM EDTA, pH 8.0) at twofold the intended concentration. Then 5 μL DMSO, 2.2 μL inhibitor and 45 μL substrate were added to start the reaction. The assays were monitored at 37° C. in a multi well plate reader at a wavelength of 405 nm (Molecular Devices, San Jose, CA) for 1 h. The tool inhibitor, nafamostat, was used as a control for trypsin, thrombin, KLK-5 and KLK-14 at 10 μM maximal concentration and (2-(2-fluorophenyl)-5,6,7,8-tetrahydro-4H-benzo[4,5]thieno[2,3-d][1,3]oxazin-4-one for KLK-7 at 5 μM.
Data analysis: The progress curves of substrate hydrolysis were analyzed by linear regression of the final 20 min of the reaction. Fit of the dose response of the resulting rates to the following equation yielded the IC50: […]

Plasmin = molecular target: T2, Plasmin (Homo sapiens, UniProt P00747); experiment: Chromogenic assay, plasmin; conditions: Plasmin 1.0 nM; S-2288 500 μM; highest conc. of 1.001 50 μM
T2 construct: purchased Haematologic Technologies (Essex Junction, VT)
T2 sequence (P00747 581-810 limits assumed, species assumed): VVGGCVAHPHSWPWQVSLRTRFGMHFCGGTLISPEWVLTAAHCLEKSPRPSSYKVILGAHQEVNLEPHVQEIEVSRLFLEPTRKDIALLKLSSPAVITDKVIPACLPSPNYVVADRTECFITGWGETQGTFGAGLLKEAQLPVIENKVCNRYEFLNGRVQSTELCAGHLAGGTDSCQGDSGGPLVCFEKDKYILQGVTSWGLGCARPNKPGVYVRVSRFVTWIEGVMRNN
T2 sequence (P00747 97-580 partner limits assumed, species assumed): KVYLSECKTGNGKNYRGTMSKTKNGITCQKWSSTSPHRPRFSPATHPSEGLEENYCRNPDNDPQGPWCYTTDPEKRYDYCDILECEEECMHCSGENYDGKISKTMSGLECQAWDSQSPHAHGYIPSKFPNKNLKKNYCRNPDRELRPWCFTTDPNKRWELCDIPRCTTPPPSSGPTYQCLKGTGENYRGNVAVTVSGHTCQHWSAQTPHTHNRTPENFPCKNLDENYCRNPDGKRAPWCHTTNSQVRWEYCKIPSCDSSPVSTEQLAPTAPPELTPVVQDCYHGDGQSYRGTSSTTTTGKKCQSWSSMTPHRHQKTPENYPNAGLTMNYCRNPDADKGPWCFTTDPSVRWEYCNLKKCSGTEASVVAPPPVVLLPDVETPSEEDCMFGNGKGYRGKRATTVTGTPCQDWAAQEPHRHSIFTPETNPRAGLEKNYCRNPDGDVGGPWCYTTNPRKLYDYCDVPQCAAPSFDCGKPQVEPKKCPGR
Source text: (§2) Human Kallikrein Proteins: Recombinant human KLK5 expressed in HEK293 was obtained from SpeedBio (Gaithersburg, MD). Recombinant proenzyme KLK-7 and recombinant proenzyme KLK-14 both expressed in mouse myeloma cells were from R&D Biosystems (Minneapolis, MN). Plasmin and thrombin were from Haematologic Technologies (Essex Junction, VT). Trypsin and Chymotrypsin were bought from Worthington Biochemical Corporation (Lakewood, NJ) and plasma kallikrein was from Prospec (East Brunswick, NJ). Neutrophil Elastase was obtained from Innovative Research (Peary Court, MI). Bovine recombinant enterokinase expressed in E. coli was bought from Sigma (St. Louis, MI). Matriptase expressed in E. coli was obtained from Enzo Life Sciences (Farmingdale, NY). The control inhibitors Nafamostat mesylate was from Sigma (St. Louis, MI) and (2-(2-fluorophenyl)-5,6,7,8-tetrahydro-4H-benzo[4,5]thieno[2,3-d][1,3]oxazin-4-one was from Interbioscreen (Moskow, Russia). […]
(§3) Assays: All assays were performed in 384 well polystyrene plates coated overnight with 0.1% Tween 20 at 4° C. […] The assays were monitored at 37° C. in a multi well plate reader at a wavelength of 405 nm (Molecular Devices, San Jose, CA) for 1 h. […]
(§4) Data analysis: The progress curves of substrate hydrolysis were analyzed by linear regression of the final 20 min of the reaction. […]

KLK14 = molecular target: T3, KLK14 (Homo sapiens, UniProt Q9P0G3); experiment: Chromogenic assay, KLK14; conditions: S-2288 500 μM, highest conc. of 1.001 50 μM
T3 construct: purchased R&D Biosystems (Minneapolis, MN) / R&Dsystems; host or cells: mouse myeloma cells
T3 sequence (Q9P0G3 25-251): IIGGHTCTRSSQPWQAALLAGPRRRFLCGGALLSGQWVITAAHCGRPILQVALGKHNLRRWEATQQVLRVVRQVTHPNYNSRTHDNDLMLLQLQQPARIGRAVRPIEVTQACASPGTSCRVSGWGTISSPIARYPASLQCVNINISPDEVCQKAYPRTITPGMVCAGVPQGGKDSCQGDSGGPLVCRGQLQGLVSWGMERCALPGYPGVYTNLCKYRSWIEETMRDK
Source text: Human Kallikrein Proteins: Recombinant human KLK5 expressed in HEK293 was obtained from SpeedBio (Gaithersburg, MD). Recombinant proenzyme KLK-7 and recombinant proenzyme KLK-14 both expressed in mouse myeloma cells were from R&D Biosystems (Minneapolis, MN). Plasmin and thrombin were from Haematologic Technologies (Essex Junction, VT). Trypsin and Chymotrypsin were bought from Worthington Biochemical Corporation (Lakewood, NJ) and plasma kallikrein was from Prospec (East Brunswick, NJ). Neutrophil Elastase was obtained from Innovative Research (Peary Court, MI). Bovine recombinant enterokinase expressed in E. coli was bought from Sigma (St. Louis, MI). Matriptase expressed in E. coli was obtained from Enzo Life Sciences (Farmingdale, NY). The control inhibitors Nafamostat mesylate was from Sigma (St. Louis, MI) and (2-(2-fluorophenyl)-5,6,7,8-tetrahydro-4H-benzo[4,5]thieno[2,3-d][1,3]oxazin-4-one was from Interbioscreen (Moskow, Russia).
Substrates: S-2288 (D-Ile-Pro-Arg-pNA), CS-PSA (MeO-Suc-Arg-Pro-Tyr-pNA), S-2266 (H-D-Val-Leu-Arg-pNA) and S-2288 (H-D-Ile-Pro-Arg-pNA) were bought from Diapharma (West Chester, OH). MeOSuccAla-Ala-Pro-Val-pNA was purchased from Sigma (St Louis, MI). The substrates were dissolved in water at 10 mM and were frozen in aliquots at −20° C.
Activation of KLK-7 and KLK-14: 150 μL 8 μM solution of the proenzymes of KLK-7 or KLK-14 in 50 mM Tris, 10 mM CaCl2, 150 mM NaCl, 0.05% (w/v) Brij-35, pH 7.5 were mixed with 150 μL 10 μg/mL bovine enterokinase in the same buffer and incubated for 2 h for KLK-7 and 1 h for KLK-14 at 37° C. After the incubation period, activation was stopped by addition of 6 μL 0.5 M EDTA pH 8.0.
Assays: All assays were performed in 384 well polystyrene plates coated overnight with 0.1% Tween 20 at 4° C. The plates were then washed twice with 100 μL water and dried. […] The assays were monitored at 37° C. in a multi well plate reader at a wavelength of 405 nm (Molecular Devices, San Jose, CA) for 1 h. […]
as §4

Neutrophil Elastase = molecular target: T4, Neutrophil Elastase (Homo sapiens, UniProt P08246); experiment: Chromogenic assay, neutrophil elastase; conditions: Neutrophil Elastase 0.5 nM; Elastase substrate 1 200 μM; highest conc. of 1.001 100 μM
T4 sequence (P08246 30-267): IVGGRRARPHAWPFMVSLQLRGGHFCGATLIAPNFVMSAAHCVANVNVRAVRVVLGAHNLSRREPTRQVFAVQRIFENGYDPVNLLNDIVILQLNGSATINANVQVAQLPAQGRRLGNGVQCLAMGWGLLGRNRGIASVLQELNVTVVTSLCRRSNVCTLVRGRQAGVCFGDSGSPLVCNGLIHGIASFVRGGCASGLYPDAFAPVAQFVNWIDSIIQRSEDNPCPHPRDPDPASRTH
Source text: as §2, §3, §4

proteases = experiment: Chromogenic assay, protease panel (conclusion); conditions: conclusion from Table 3, all proteases tested
Experimental: as §1, with “μM. […]” for “μM.”

T1 sequence (P00742 235-488 limits assumed): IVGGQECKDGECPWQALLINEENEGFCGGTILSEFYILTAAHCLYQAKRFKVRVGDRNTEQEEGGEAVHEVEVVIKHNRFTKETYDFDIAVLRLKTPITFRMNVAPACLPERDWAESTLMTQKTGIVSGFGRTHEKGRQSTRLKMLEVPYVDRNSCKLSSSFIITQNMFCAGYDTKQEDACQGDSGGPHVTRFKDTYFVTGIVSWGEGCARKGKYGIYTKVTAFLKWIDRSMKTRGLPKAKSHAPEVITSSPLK
T1 sequence (P00742 41-179 partner limits assumed): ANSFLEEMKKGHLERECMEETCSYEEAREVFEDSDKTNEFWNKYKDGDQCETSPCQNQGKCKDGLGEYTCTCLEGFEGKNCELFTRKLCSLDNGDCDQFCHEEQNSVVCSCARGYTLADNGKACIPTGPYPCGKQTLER

Row | Structure (SMILES) | IC50 (Factor Xa) | IC50 (Plasmin) | IC50 (KLK14; KLK14 1 nM) [µM] | IC50 (KLK14; KLK14 5 nM) [µM] | IC50 (Neutrophil Elastase) [µM] | IC50 (μM), Factor Xa (Factor Xa) | IC50 (μM), Plasmin (Plasmin) | IC50 (μM), KLK14 (KLK14; KLK14 5 nM) | Inhibition of proteases, conclusion in words (proteases)
1 | CS(=O)(=O)c1cc(CO)ccc1-c1nc2cc3c(cc2c(=O)o1)OCCO3 [Compound 1.001, 2-(4-(Hydroxymethyl)-2-(methylsulfonyl)phenyl)-7,8-dihydro-4H-[1,4]dioxino[2′,3′:4,5]benzo[1,2-d][1,3]oxazin-4-one] | 3.22 µM and 10.4 µM and 3.94 µM | 3.36 µM and 4.2 µM | 0.442 | 0.633 | > 50 |  |  |  | 
2 | CS(=O)(=O)c1cc(CO)ccc1C(=O)Nc1cc2c(cc1C(=O)O)OCCO2 [Compound 408, reference compound] |  |  |  |  | > 500 | No inhibition | No inhibition | No inhibition | unable to inhibit proteases

— patent publication US12281123B2, “Benzoxazinone compounds as KLK5/7 dual inhibitors” (MOLECULAR SKIN THERAPEUTICS, INC., priority 2019, dated 2025)
